Experimental data published in publication PMC2904477 (Biochemistry, 2010).

Key:
[1] = target: T1, K402Q/R405Q/R409Q CB1 receptor (Homo sapiens, UniProt P21554, K402Q/R405Q/R409Q); details: CP55940 dose-response, mean ± SEM
wild-type CB1 receptor [2] = target: T2, wild-type CB1 receptor (Homo sapiens, UniProt P21554); details: CP55940 dose-response; wild-type receptor (reference)
F408A CB1 receptor = F408A CB1 receptor (Homo sapiens, UniProt P21554, F408A); details: [3H]CP55940 saturation binding
Sequence of F408A CB1 receptor (P21554 whole entry F408A): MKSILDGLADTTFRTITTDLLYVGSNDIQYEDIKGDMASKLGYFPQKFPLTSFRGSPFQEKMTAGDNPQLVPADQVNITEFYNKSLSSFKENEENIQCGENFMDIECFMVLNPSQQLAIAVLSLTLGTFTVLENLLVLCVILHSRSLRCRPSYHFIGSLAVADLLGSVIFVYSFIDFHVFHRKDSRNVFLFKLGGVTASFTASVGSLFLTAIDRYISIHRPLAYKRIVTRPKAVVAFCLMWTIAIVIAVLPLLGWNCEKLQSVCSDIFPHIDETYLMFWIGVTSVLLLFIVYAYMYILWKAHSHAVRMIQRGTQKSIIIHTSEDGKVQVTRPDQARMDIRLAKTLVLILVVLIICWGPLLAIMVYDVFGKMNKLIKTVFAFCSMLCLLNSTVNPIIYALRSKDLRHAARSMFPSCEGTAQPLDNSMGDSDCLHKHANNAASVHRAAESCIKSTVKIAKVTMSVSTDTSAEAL

[3] = target: T3, L404A/F408A/F412A CB1 receptor (Homo sapiens, UniProt P21554, F408A/F412A/L404A); details: CP55940 dose-response, mean ± SEM
T3 sequence (P21554 whole entry L404A/F408A/F412A): as the sequence (P21554 whole entry F408A) above, with L404A, F412A counted along it

F412A CB1 receptor = F412A CB1 receptor (Homo sapiens, UniProt P21554, F412A); details: [3H]CP55940 saturation binding
Sequence of F412A CB1 receptor (P21554 whole entry F412A): as the sequence (P21554 whole entry F408A) above, with A408F, F412A counted along it

[4] = target: T3, L404A/F408A/F412A CB1 receptor; details: [3H]CP55940 saturation binding, mean ± SEM
L404A CB1 receptor = L404A CB1 receptor (Homo sapiens, UniProt P21554, L404A); details: [3H]CP55940 saturation binding
Sequence of L404A CB1 receptor (P21554 whole entry L404A): as the sequence (P21554 whole entry F408A) above, with L404A, A408F counted along it

wild-type CB1 receptor [5] = target: T2, wild-type CB1 receptor; details: [3H]CP55940 saturation binding, mean ± SEM
L404F/F408L CB1 receptor = L404F/F408L CB1 receptor (Homo sapiens, UniProt P21554, F408L/L404F); details: [3H]CP55940 saturation binding
Sequence of L404F/F408L CB1 receptor (P21554 whole entry L404F/F408L): as the sequence (P21554 whole entry F408A) above, with L404F, A408L counted along it

[6] = target: T1, K402Q/R405Q/R409Q CB1 receptor; details: [3H]CP55940 saturation binding, mean ± SEM
L404F/F412L CB1 receptor = L404F/F412L CB1 receptor (Homo sapiens, UniProt P21554, F412L/L404F); details: [3H]CP55940 saturation binding
Sequence of L404F/F412L CB1 receptor (P21554 whole entry L404F/F412L): as the sequence (P21554 whole entry F408A) above, with L404F, A408F, F412L counted along it

T1 sequence (P21554 whole entry K402Q/R405Q/R409Q): as the sequence (P21554 whole entry F408A) above, with K402Q, R405Q, A408F, R409Q counted along it
T2 sequence (P21554 whole entry): as the sequence (P21554 whole entry F408A) above, with A408F counted along it

With `CCCCCCC(C)(C)c1ccc([C@@H]2C[C@H](O)CC[C@H]2CCCO)c(O)c1` [CP55940, (1R,3R,4R)-3-[2-hydroxy-4-(1,1-dimethylheptyl)phenyl]-4-(3-hydroxypropyl)cyclohexan-1-ol] the “GTPγS Emax” value [1] was 80.6 ± 2.0 % WT, the “GTPγS Emax” value (wild-type CB1 receptor [2]) was 100.0 % WT and the Bmax (F408A CB1 receptor) was 4133 ± 105 fmol/mg. The “GTPγS Emax” value [3] was 14.4 ± 1.9 % WT, the Bmax (F412A CB1 receptor) was 4062 ± 80 fmol/mg and the Bmax [4] was 867 ± 80 fmol/mg. For the same compound, the Bmax (L404A CB1 receptor) was 3158 ± 135 fmol/mg, the Bmax (wild-type CB1 receptor [5]) was 3499 ± 129 fmol/mg and the Bmax (L404F/F408L CB1 receptor) was 4523 ± 239 fmol/mg. The Bmax [6] was 3118 ± 142 fmol/mg and the Bmax (L404F/F412L CB1 receptor) was 4531 ± 177 fmol/mg.
